Laboratory results as given in US5106976A, “Fused pyrazine sulfoxide derivatives for use as antiulcer agents” (Nippon Chemiphar Co., Ltd., priority 1986, dated 1992).
Where two headings read alike, the source gives them in different places.

Experiments:
[1] = system: secretion of gastric acid; assay: Inhibitory action against secretion of gastric acid (pylorus-ligated rats, Shay method); format: in vivo, male Donryu rats; settings: read-out: Suppressive action against secretion of gastric acid
Protocol: Under ether anesthesia, the pylorus of the rat was ligated and each test compound was administered intraduodenally. Four hours later, each rat was killed and the stomach was removed to collect the gastric juice. The inhibitory action was determined by comparing the acid output which was obtained by titration to pH 7.0 with 0.1-N NaOH by means of an automatic titrator, with the corresponding value of a control rat prepared in the same manner except that a vehicle alone was administered.

[2] = Water-immersion stress-induced erosions (gastric lesion model); format: in vivo, male Donryu rats; settings: rat, 10 minutes before stressing, 7 hours immersion
Protocol: Two different types of gastric lesion models were induced in male Donryu rats (180 to 240 g) which had been deprived of food but allowed free acess to water for 24 to 48 hours prior to experiments. Rats fasted for 24 hours before experiments were placed in a restraint cage. The animals were immersed vertically to the level of the xiphoid process in a water bath (21° C.) for 7 hours and then killed. The stomach of each rat was removed and inflated by injecting 10 ml of 1% formalin to fix the inner and outer layers of the gastric walls. This formalin treatment was performed in all of the following experiments. Subsequently, the stomach was incised along a greater curvature and examined for any erosion in the glandular portion. Each test compound or a vehicle alone was given orally 10 minutes before stressing.

[3] = target: T1, H^+ +K^+ ATPase (Oryctolagus cuniculus, UniProt P27112); assay: H+ + K+ ATPase inhibitory effect (vesicles from rabbit gastric mucosa cells); format: biochemical; settings: 2×10^-4 M test compound, 25 min room temperature preincubation at pH 6.0; reaction pH 7.4, 37° C., 15 min
T1 construct: gastric acid secretory cells of a rabbit gastric mucosa were isolated and vesicle containing H^+ +K^+ ATPase was prepared; from tissue; host or cells: rabbit gastric mucosa, acid secretory cells; vesicles by Ficoll discontinuous density gradient
Protocol: Following the method of Forte et al [J. Applied Physiol., 32, 714-717 (1972)], gastric acid secretory cells of a rabbit gastric mucosa were isolated and vesicle containing H^+ +K^+ ATPase was prepared by centrifuging the cells in Ficoll of discontinuous density gradient. After the enzyme was incubated at room temperature for 25 min. in 0.5 ml of a solution which contained 5 mM of an imidazole buffer (pH 6.0) and 2×10^-4 M of each test compound, the mixture was heated to 37° C. at which it was allowed to stand for further 5 min. To the mixture was added 0.5 ml of a solution which contained 4 mM of magnesium chloride, 80 mM of an imidazole buffer (pH 7.4), 20 mM of potassium chloride and 4 mM of ATP. The resulting mixture was caused to react at 37° C. for 15 min., and 1 ml of a 24% solution of trichloroacetic acid was then added to terminate the reaction. The inorganic phosphorus liberated was quantitatively analyzed by the method proposed by Taussky and Shorr [J. Biol. Chem., 202, 675- 685 (1953)]. The K^+ -dependent activity of the ATPase was determined by subtracting its activity obtained when no potassium chloride was contained. The results are set forth in Table 1 in which Compound Nos. 1-7 are the sulfoxide derivatives prepared in the hereinafter-described Examples 1-7, respectively.

[4] = HCl-ethanol-induced erosions (gastric lesion model); format: in vivo, male Donryu rats; settings: rat, 30 minutes before ethanol treatment
Protocol: Two different types of gastric lesion models were induced in male Donryu rats (180 to 240 g) which had been deprived of food but allowed free acess to water for 24 to 48 hours prior to experiments.
A hydrochloric acid-ethanol solution (150 mM HCl in 60% ethanol) was given orally to rats in a dose of 1 ml/200 g, which rats had been fasted for 24 hours before experiments. One hour later, each animal was killed and the stomach was examined for any erosion in the glandular portion. Each test compound or a vehicle alone was given orally 30 minutes before ethanol treatment.

[5] = Rattus norvegicus, intraduodenal, 4 h
[6] = 100 mg/kg intraduodenal, rat, 4 hours

T1 sequence (P27112 whole entry): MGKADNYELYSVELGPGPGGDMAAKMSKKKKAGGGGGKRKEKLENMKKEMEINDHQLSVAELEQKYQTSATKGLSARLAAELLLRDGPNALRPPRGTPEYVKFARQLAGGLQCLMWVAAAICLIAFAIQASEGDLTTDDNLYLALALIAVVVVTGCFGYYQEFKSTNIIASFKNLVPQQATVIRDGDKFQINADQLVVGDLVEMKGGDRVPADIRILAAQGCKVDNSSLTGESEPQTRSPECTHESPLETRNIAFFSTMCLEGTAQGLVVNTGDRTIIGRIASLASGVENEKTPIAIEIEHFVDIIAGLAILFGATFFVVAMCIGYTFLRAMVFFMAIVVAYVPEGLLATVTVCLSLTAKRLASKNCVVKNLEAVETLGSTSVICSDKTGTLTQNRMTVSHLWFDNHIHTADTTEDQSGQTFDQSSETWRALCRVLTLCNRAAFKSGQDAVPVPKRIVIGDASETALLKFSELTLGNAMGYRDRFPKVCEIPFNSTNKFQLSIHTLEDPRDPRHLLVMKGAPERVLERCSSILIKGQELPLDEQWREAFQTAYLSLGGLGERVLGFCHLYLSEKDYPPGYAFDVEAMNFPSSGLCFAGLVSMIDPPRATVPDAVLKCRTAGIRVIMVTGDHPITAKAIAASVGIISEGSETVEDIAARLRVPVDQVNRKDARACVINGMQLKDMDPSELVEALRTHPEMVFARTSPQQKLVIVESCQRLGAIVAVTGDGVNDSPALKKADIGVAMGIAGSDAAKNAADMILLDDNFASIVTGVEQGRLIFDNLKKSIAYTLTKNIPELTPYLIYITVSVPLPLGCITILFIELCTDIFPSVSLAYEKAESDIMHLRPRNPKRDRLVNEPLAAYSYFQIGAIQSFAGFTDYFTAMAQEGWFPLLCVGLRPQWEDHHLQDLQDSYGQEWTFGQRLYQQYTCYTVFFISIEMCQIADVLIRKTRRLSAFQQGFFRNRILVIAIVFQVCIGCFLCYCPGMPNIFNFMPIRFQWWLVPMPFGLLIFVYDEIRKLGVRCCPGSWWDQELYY
T1 sequence (P18597 whole entry partner): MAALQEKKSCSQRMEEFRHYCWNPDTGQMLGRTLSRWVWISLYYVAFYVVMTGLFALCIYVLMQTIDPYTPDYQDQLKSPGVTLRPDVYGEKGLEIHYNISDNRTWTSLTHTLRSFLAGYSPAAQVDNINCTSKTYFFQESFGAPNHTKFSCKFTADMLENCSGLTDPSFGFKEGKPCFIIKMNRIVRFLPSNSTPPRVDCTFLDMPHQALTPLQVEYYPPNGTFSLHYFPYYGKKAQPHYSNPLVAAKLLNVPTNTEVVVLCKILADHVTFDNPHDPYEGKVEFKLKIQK

SMILES	inhibition at 200 µM [3] [%]	inhibition in vivo at 100 mg/kg [1, 6] [%]	also measured
CNC(=NCCSCc1nc[nH]c1C)NC#N [Cimetidine, N-cyano-N'-methyl-N"-[2-[[(5-methyl-1H-imidazol-4-yl)methyl]thio]-ethyl]guanidine, reference compound]			inhibition in vivo at 10 mg/kg [1, 5]: 25.3%; inhibition in vivo at 30 mg/kg [1, 5]: 59.1%; inhibition in vivo at 100 mg/kg [1, 5]: 80.3%; Inhibition on Water-Immersion stress-induced erosions ([2]; 60 mg/kg oral): 49%; Inhibition on Water-Immersion stress-induced erosions ([2]; 200 mg/kg oral): 87%
CN(C)c1ccccc1C[S+]([O-])c1nc2ncccc2[nH]1 (stereo not shown) [Compound No. 1, 2-(2-dimethylaminobenzylsulfinyl)imidazo[4,5-b]pyridine]	92.3	95.1	inhibition in vivo at 10 mg/kg ([1]; 10 mg/kg intraduodenal, rat, 4 hours): 53%; inhibition in vivo at 30 mg/kg ([1]; 30 mg/kg intraduodenal, rat, 4 hours): 79%; Inhibition on Water-Immersion stress-induced erosions ([2]; 30 mg/kg oral): 66%; Inhibition on Water-Immersion stress-induced erosions ([2]; 100 mg/kg oral): 87%; Inhibition on HCl--Ethanol-induced Erosions ([4]; 10 mg/kg oral): 37%; Inhibition on HCl--Ethanol-induced Erosions ([4]; 30 mg/kg oral): 97%
[O-][S+](Cc1ccccn1)c1cnc2ccccc2n1 (stereo not shown) [Compound No. 2, 2-(2-pyridylmethylsulfinyl)quinoxaline]	96.8	54.8	
Cc1nc2ccccc2nc1[S+]([O-])Cc1ccccn1 (stereo not shown) [Compound No. 3, 3-methyl-2-(2-pyridylmethylsulfinyl)quinoxaline]	99.5	54.7	
Cc1nc2cccnc2nc1[S+]([O-])Cc1ccccn1 (stereo not shown) [Compound No. 4, 2-methyl-3-(2-pyridylmethylsulfinyl)pyrido[2,3-b]pyrazine]	89.4	96.7	
CN(C)c1ccccc1C[S+]([O-])c1cnc2ccccc2n1 (stereo not shown) [Compound No. 5, 2-(2-dimethylaminobenzylsulfinyl)quinoxaline]	100	55.1	
Cc1nc2ccccc2nc1[S+]([O-])Cc1ccccc1N(C)C (stereo not shown) [Compound No. 6, 2-(2-dimethylaminobenzylsulfinyl)-3-methylquinoxaline]	100	89.6	
Cc1cc2nc(C)c([S+]([O-])Cc3ccccc3N(C)C)nc2cc1C (stereo not shown) [Compound No. 7, 2-(2-dimethylaminobenzylsulfinyl)-3,6,7-trimethylquinoxaline]	80.8	46.9	
